Measurements as given in PMC12354831 (Cell Death Discovery, 2025).
“And” between values parts separate entries of the source, which are not always exact repeats. Equal values may be shown once. Read-outs that look alike come from different tables or passages of the source.

Legend:
[1] = system: U251-MG cells; test: CCK-8 IC50 determination in U251-MG cells with or without GLUT3 OE; format: cell-based, human; conditions: GLUT3 OE vs control, CCK-8, 24 h drug treatment
Method: The GBM cell line was seeded into a 96-well plate at a density of 5 × 10^3 cells per well and incubated at 37 °C in a humidified atmosphere containing 5% CO2 overnight. […] Following 24 h of drug treatment, 10 µL of CCK-8 reagent was added to each well, and the cells were incubated for an additional 1 h at 37 °C. The absorbance was then measured at 450 nm using a microplate reader.
In this study, the experimental groups were designated as Group A (cells treated with temozolomide (TMZ) or capecitabine (CAPE)), the control group as Group B (cells treated with DMSO), and the blank control group as Group C ([…]). The cell viability rate was calculated using the formula: (A-C)/(B-C) × 100%, where A, B, and C represent the absorbance values of Group A, Group B, and Group C, respectively.

[2] = biological target: T1, GLUT3 (Homo sapiens, UniProt P11169); test: Microscale thermophoresis (MST) binding assay, GLUT3-GFP in cell lysates
T1 construct: expressed in transfected cells
T1 sequence (P11169 1-496): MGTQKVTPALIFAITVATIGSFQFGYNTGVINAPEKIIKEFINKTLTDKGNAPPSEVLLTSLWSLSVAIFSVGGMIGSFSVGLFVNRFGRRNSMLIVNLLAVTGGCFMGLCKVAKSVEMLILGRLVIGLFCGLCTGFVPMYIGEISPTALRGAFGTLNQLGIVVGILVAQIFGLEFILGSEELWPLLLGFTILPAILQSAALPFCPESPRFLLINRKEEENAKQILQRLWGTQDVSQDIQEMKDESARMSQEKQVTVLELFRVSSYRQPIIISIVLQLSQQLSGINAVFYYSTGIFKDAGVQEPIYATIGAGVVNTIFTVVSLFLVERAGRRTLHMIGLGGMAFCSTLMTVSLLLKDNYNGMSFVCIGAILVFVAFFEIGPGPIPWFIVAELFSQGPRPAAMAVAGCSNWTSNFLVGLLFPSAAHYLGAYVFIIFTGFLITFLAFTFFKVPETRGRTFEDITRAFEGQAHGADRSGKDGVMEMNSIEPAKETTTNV
Method: Data from three independent measurements were analyzed using MO. Affinity Analysis software (version 2.1.3, NanoTemper Technologies).

[3] = system: U251-MG cell-derived xenograft; test: TMZ and CAPE levels in nude mouse xenograft tumors by LC-MS/MS; format: in vivo, nude mice (BALB/c-nu); conditions: nude mice, TMZ 40 mg/kg or CAPE 20 mg/kg every 3 days; for drug level in GLUT3-overexpressing tumors relative to controls: fasting groups (24 h fast before each dose); for drug concentration in GLUT3 overexpressing tumors relative to controls: regular diet
Method: TMZ and CAPE levels in tumors from nude mice were measured using LC-MS/MS. Tumor tissues were excised from the mice and homogenized. The homogenized samples were then centrifuged at maximum speed (~14,000 × g) at 4 °C for 10 min. The supernatant was collected and transferred to a new centrifuge tube.
For LC-MS/MS analysis, the supernatants were diluted to an appropriate concentration. A total of 100 µL of each sample was mixed with 100 µL of acetonitrile (or standard reagent) and 300 µL of internal standard solution (^2H3-TMZ 100 ng/mL and ^2H11-CAPE 20 ng/mL dissolved in acetonitrile). […] To ensure the stability and repeatability of the instrument analysis, QC samples were prepared and analyzed alongside the experimental samples. QC samples were inserted regularly and analyzed every 6–12 samples. Each experiment was repeated 6 times.
LC-MS/MS analyses were performed using an HPLC system (Shimadzu, LC-20A) coupled to a SCIEX Triple Quad™ 7500 mass spectrometer. The samples were separated on a Syncronis HILIC column (2.1 × 100 mm, 1.7 µm; Thermo Scientific). The mobile phases consisted of: Mobile phase A (0.1% formic acid and 2.5 mM ammonium acetate in water) and Mobile phase B (0.1% formic acid and 2.5 mM ammonium acetate in acetonitrile). Gradient elution was employed, with the flow rates and gradient conditions detailed in Table S4.
The mass spectrometry conditions were as follows: Ion source: electrospray ionization (ESI); Detection mode: positive ion mode; Scanning method: multiple reaction monitoring (MRM); Spray voltage (IS): 5500 V; Ion source temperature (TEM): 555 °C; Gas curtain pressure (CUR): 25 psi; Collision activation dissociation (CAD): MEDIUM; Nebulizer gas pressure (GS1): 55 psi; Auxiliary gas pressure (GS2): 55 psi.
All animal studies were approved and supervised by the Ethics Committee for Animal Use and Care at Peking University. Nude mice (BALB/c-nu) were purchased and maintained as previously described. For the establishment of xenograft tumor models, 1 × 10^6 U251-MG cells (either negative vector control or overexpressing GLUT3) were injected into the bilateral axillary fossae of 4-week-old nude mice. After 7 days, when palpable tumors had formed, the mice were randomly divided into six experimental groups (n = 7 per group), and treatment was initiated immediately.

[4] = across the tested GBM cell lines (U343-MG, U251-MG), read-out: Kd values

SMILES | reduction of IC50 in GLUT3 overexpressing cells compared to control cells [1] | Kd [2, 4] | drug level in GLUT3-overexpressing tumors relative to controls [3] | drug concentration in GLUT3 overexpressing tumors relative to controls [3] | Kd ([2]; U251-MG lysate, GLUT3-GFP, pH 6.8, read-out: Kd)
Cn1nnc2c(C(N)=O)ncn2c1=O [TMZ] | 97.7% | 300 to 700 nM | 1.34 fold | ~ 1.95 fold | –
CCCCCOC(=O)Nc1nc(=O)n([C@@H]2O[C@H](C)[C@@H](O)[C@H]2O)cc1F [CAPE, capecitabine] | 94.4% | 1000 to 3000 nM and 900 to 3500 nM | 3.54 fold | 1.52 fold | 1800 ± 1100 nM
